Tests used:
[1] = biological target: T1, recombinant human 5-HT6 receptor (Homo sapiens, UniProt P50406); assay: Determination of Kb for 5-HT6 receptor (CHO cells, pCRE-Luc reporter, cAMP); type: cell-based; settings: 10 μM serotonin, luciferase reporter
T1 construct: expressed in transfected cells
Protocol: Determination of Kb for 5-HT6 Receptor: A stable CHO cell line expressing recombinant human 5-HT6 receptor and pCRE-Luc reporter system was used for cell based assay. The assay offers a non-radioactive based approach to determine binding of a compound to GPCRs. In this specific assay, the level of intracellular cyclic AMP which is modulated by activation or inhibition of the receptor is measured. The recombinant cells harbor luciferase reporter gene under the control of cAMP response element. The above cells were plated in 96 well clear bottom white plates at a density of 5×10^4 cells/well using Hams F12 medium containing 10% fetal bovine serum (FBS) and incubated overnight at 37° C. and 5% CO2 followed by serum starvation for 18-20 hrs. Increasing concentrations of test compounds were added along with 10 μM serotonin in Opti-MEM to the cells. The incubation was continued at 37° C. in CO2 incubator for 4 hours. After 4 hours cells were lysed using lysis buffer and luciferase assay buffer was added to each well and counts per second were recorded using luminescence counter. From counts per second (CPS) obtained, percent binding was calculated for each well by taking 10 μM 5-HT as 100% bound and vehicle as 0% bound. The percent bound values were plotted against compound concentrations and data were analyzed using a nonlinear, iterative curve-fitting computer program of Graph pad Prism 4 software. The Kb values were calculated using concentration of the agonist used in the assay.

[2] = Rodent pharmacokinetic study; type: in vivo, male Wistar rats; settings: male, Wistar, plasma, rat
Protocol: Male Wistar rats (260±50 grams) were used as experimental animals. Animals were housed individually in polypropylene cage. Two days prior to study, male Wistar rats were anesthetized with isoflurane for surgical placement of jugular vein catheter. Rats were randomly divided for oral (3 mg/kg) and intravenous (1 mg/kg) dosing (n=3/group) and fasted overnight before oral dosing (p.o.). However, rats allocated to intravenous dosing food and water was provided ad libitum.
At pre-determined point, blood was collected through jugular vein and replenished with an equivalent volume of normal saline. Collected blood was transferred into a labeled eppendorf tube containing 10 μL, of heparin as an anticoagulant. Typically blood samples were collected at following time points: 0.08, 0.25, 0.5, 1, 2, 4, 6, 8, and 24 hours post dose. Blood was centrifuged at 4000 rpm for 10 minutes. Plasma was separated and stored frozen at −80° C. until analysis. The concentrations of the test compounds were quantified in plasma by qualified LC-MS/MS method using suitable extraction technique. The test compounds were quantified in the calibration range around 1-1000 ng/mL in plasma. Study samples were analyzed using calibration samples in the batch and quality control samples spread across the batch.
Pharmacokinetic parameters Cmax, AUC1, T1/2, Clearance and Bioavailability (F) were calculated by non-compartmental model using standard non-compartmental model by using Phoenix WinNonlin 6.2 or 6.4 version Software package.

[3] = Non-clinical toxicology, repeated dose toxicity study in rat; type: in vivo; settings: rat, female rats
Protocol: (§1) The safety of the example 1 of instant invention and comparator example of U.S. Pat. No. 7,378,415 were evaluated in repeated dose toxicity study in rat.
(§2) Female rats were used as experimental animals for evaluating the toxicity profile of example 1 of instant invention and the comparator example of U.S. Pat. No. 7,378,415.
(§3) During the study, female rats were dosed at incremental doses for minimum of 4 days. Toxicity assessment was done on the mortality, clinical observation, change in the body weight, feed consumption, clinical and anatomical pathology. Systemic exposures were also estimated for both of the compounds. All quantitative variables are compared with control group using one-way ANOVA followed by Dunnet's post-hoc test on GraphPad Prism Software version 4, 2003.

Female rats = assay: as above; type: in vivo; settings: repeated dose toxicity
Protocol: as §1, §2, §3

T1 sequence (P50406 whole entry): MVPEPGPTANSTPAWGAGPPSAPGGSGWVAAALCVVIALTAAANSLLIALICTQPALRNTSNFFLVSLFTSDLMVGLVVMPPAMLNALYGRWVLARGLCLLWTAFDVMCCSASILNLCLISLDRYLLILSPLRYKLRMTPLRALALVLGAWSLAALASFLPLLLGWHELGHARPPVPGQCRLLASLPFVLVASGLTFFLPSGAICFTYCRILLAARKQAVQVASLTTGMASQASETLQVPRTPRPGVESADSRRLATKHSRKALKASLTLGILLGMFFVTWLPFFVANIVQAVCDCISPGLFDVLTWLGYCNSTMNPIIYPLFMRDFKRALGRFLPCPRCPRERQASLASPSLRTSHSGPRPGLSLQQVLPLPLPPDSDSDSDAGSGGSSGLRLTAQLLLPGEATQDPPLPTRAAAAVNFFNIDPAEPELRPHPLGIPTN

In the case of Cl.O=S(=O)(c1ccccc1)c1ccc2c(c1)OCCN2C1CCNCC1F (single isomer, unassigned; peak iii) [Example 1, 7-Phenylsulfonyl-4-(3-fluoropiperidin-4-yl)-3,4-dihydro-2H-benzo[1,4]oxazine hydrochloride (Peak III)], the Kb [1] is reported as 0.04 nM, the AUC(0-t) ([2]; intravenous (bolus), 1 mg/kg) is reported as 412 ± 37 ng·h/mL and the clearance ([2]; intravenous (bolus), 1 mg/kg) is reported as 40 ± 3 mL/min/kg. The half-life ([2]; intravenous (bolus), 1 mg/kg) was 4.5 ± 0.1 h, the bioavailability ([2]; oral (gavage) 3 mg/kg vs intravenous 1 mg/kg, read-out: F (Bioavailability)) was 81 ± 1% and the AUC(0-t) ([2]; oral (gavage), 3 mg/kg) was 1000 ± 15 ng·h/mL. The Cmax ([2]; oral (gavage), 3 mg/kg) was 84 ± 14 ng/mL, the half-life ([2]; oral (gavage), 3 mg/kg) was 5.6 ± 0.9 h and the NOAEL at 4 days ([3]; in vivo, 4-Day repeat tox) was 300 mg/kg. For the same molecule, the MTD ([3]; in vivo, repeated incremental doses, read-out: Maximum Tolerated Dose) was no less than 300 mg/kg, the AUC ([3]; plasma, repeated dose toxicity study, read-out: AUC (systemic exposure in toxicity study)) was 38100 ng·h/mL and the Cmax ([3]; plasma, repeated dose toxicity study, read-out: Cmax (systemic exposure in toxicity study)) was 2420 ng/mL. For the same molecule, the “Findings (mortality)” value (Female rats) was “No death up” and the “Findings (mortality)” value (Female rats; listed as example 1) was “no deaths were observed at doses as high as 300 mg/kg”.
